# From DBAASP
# Columns and labels:
# Experiment in all cases: ≥ marks a high value that may be exact or a test limit, other limits are often not marked, values filed in µg/mL are converted to µM
# [1] = test system: Staphylococcus epidermidis ATCC 12228
# [2] = test system: Escherichia coli ATCC 25922
# [3] = test system: Escherichia coli
# [4] = test system: Staphylococcus aureus ATCC 29213
# [5] = test system: Staphylococcus aureus
# [6] = test system: Pseudomonas aeruginosa
# [7] = test system: Candida albicans ATCC 90028
# [8] = test system: Candida albicans
# [9] = test system: Pseudomonas aeruginosa PAO1
# [10] = test system: Staphylococcus aureus ATCC 25923
# [11] = test system: Escherichia coli UB1005
SMILES,MIC [2],MIC [3],MIC [5],MIC [6],also measured
CC(C)C[C@H](NC(=O)[C@H](CC(N)=O)NC(=O)[C@H](Cc1c[nH]c2ccccc12)NC(=O)[C@H](CCCN=C(N)N)NC(=O)[C@H](C)NC(=O)[C@H](CCCCN)NC(=O)[C@H](CCCCN)NC(=O)CNC(=O)[C@H](CC(C)C)NC(=O)[C@H](Cc1ccc(O)cc1)NC(=O)[C@H](Cc1ccc(O)cc1)NC(=O)CNC(=O)[C@H](Cc1c[nH]c2ccccc12)NC(=O)[C@H](CO)NC(=O)[C@H](CO)NC(=O)[C@H](Cc1c[nH]c2ccccc12)NC(=O)[C@H](CC(C)C)NC(=O)[C@H](CCCCN)NC(=O)[C@@H](NC(=O)[C@@H](NC(=O)[C@H](CC(C)C)NC(=O)[C@@H](N)CC(=O)O)[C@@H](C)O)[C@@H](C)O)C(=O)O [DLTTKLWSSWGYYLGKKARWNL],,,,,MIC [1]: 25 µM
CC[C@H](C)[C@H](NC(=O)CN)C(=O)NCC(=O)N[C@@H](C)C(=O)N[C@H](C(=O)N[C@@H](CC(C)C)C(=O)N[C@@H](CCCCN)C(=O)N[C@H](C(=O)N[C@@H](CC(C)C)C(=O)N[C@H](C(=O)N[C@H](C(=O)NCC(=O)N[C@@H](CC(C)C)C(=O)N1CCC[C@H]1C(=O)N[C@@H](C)C(=O)N[C@@H](CS)C(=O)N[C@H](C(=O)N[C@@H](CO)C(=O)N[C@@H](Cc1c[nH]c2ccccc12)C(=O)N[C@@H](CS)C(=O)N[C@@H](CCCCN)C(=O)N[C@@H](CCCN=C(N)N)C(=O)N[C@@H](CCCCN)C(=O)N[C@@H](CCCN=C(N)N)C(=O)N[C@@H](CCC(N)=O)C(=O)N[C@@H](CCC(N)=O)C(=O)O)[C@@H](C)CC)[C@@H](C)O)[C@@H](C)O)C(C)C)C(C)C [GIGAVLKVLTTGLPACISWCKRKRQQ],10 µM,20 µM,,,MIC [4]: > 40 µM
CC[C@H](C)[C@H](NC(=O)CN)C(=O)NCC(=O)N[C@@H](CCCCN)C(=O)N[C@@H](Cc1ccccc1)C(=O)N[C@@H](CC(C)C)C(=O)N[C@@H](Cc1cnc[nH]1)C(=O)N[C@@H](CO)C(=O)N[C@@H](C)C(=O)N[C@@H](CCCCN)C(=O)N[C@@H](CCCCN)C(=O)N[C@@H](Cc1ccccc1)C(=O)NCC(=O)N[C@@H](CCCCN)C(=O)N[C@@H](C)C(=O)N[C@@H](Cc1c[nH]c2ccccc12)C(=O)N[C@H](C(=O)NCC(=O)N[C@@H](CCC(=O)O)C(=O)N[C@H](C(=O)N[C@@H](CCSC)C(=O)N[C@@H](CC(N)=O)C(=O)N[C@@H](CO)C(N)=O)[C@@H](C)CC)C(C)C [GIGKFLHSAKKFGKAWVGEIMNS],,40 µM,> 80 µM,80 µM,
CC[C@H](C)[C@H](NC(=O)CN)C(=O)NCC(=O)N[C@@H](CCCCN)C(=O)N[C@@H](Cc1ccccc1)C(=O)N[C@@H](CC(C)C)C(=O)N[C@@H](Cc1cnc[nH]1)C(=O)N[C@H](C(=O)N[C@@H](CC(C)C)C(=O)N[C@@H](CCCCN)C(=O)N[C@H](C(=O)N[C@@H](Cc1ccccc1)C(=O)NCC(=O)N[C@@H](CCCCN)C(=O)N[C@@H](CCCCN)C(=O)N[C@@H](Cc1c[nH]c2ccccc12)C(=O)N[C@H](C(=O)NCC(=O)N[C@@H](CCC(=O)O)C(=O)N[C@H](C(=O)N[C@@H](CCSC)C(=O)N[C@@H](CC(N)=O)C(=O)N[C@@H](CO)C(N)=O)[C@@H](C)CC)C(C)C)[C@@H](C)O)[C@@H](C)O [GIGKFLHTLKTFGKKWVGEIMNS],,13 µM,13 µM,13 µM,
CC[C@H](C)[C@H](NC(=O)CN)C(=O)N[C@@H](CCCCN)C(=O)N[C@@H](CCCCN)C(=O)N[C@@H](Cc1c[nH]c2ccccc12)C(=O)N[C@@H](CC(C)C)C(=O)N[C@@H](Cc1cnc[nH]1)C(=O)N[C@@H](CO)C(=O)N1CCC[C@H]1C(=O)N[C@@H](CCCCN)C(=O)N[C@@H](CCCCN)C(=O)N1CCC[C@H]1C(=O)NCC(=O)N[C@@H](CCCCN)C(=O)N[C@@H](CCCCN)C(=O)N[C@@H](Cc1ccccc1)C(=O)N[C@H](C(=O)N[C@@H](CCCCN)C(=O)N[C@@H](CCCCN)C(=O)N[C@H](C(=O)N[C@@H](CCSC)C(=O)N[C@@H](CC(N)=O)C(=O)N[C@@H](CO)C(N)=O)[C@@H](C)CC)C(C)C [GIKKWLHSPKKPGKKFVKKIMNS],> 80 µM,,,,MIC [1]: 10 µM
CC[C@H](C)[C@H](NC(=O)[C@H](CCCCN)NC(=O)[C@H](CC(=O)O)NC(=O)[C@H](CC(C)C)NC(=O)[C@H](CC(C)C)NC(=O)CNC(=O)[C@@H](NC(=O)[C@H](C)NC(=O)[C@H](CC(C)C)NC(=O)[C@H](CC(N)=O)NC(=O)[C@H](CCCCN)NC(=O)[C@H](C)NC(=O)[C@@H](NC(=O)[C@H](CC(N)=O)NC(=O)[C@H](CCCCN)NC(=O)[C@@H](NC(=O)[C@@H](NC(=O)[C@H](CC(=O)O)NC(=O)[C@H](CC(C)C)NC(=O)[C@H](CC(C)C)NC(=O)CN)[C@@H](C)O)[C@@H](C)CC)[C@@H](C)O)C(C)C)C(=O)N[C@@H](CCCCN)C(=O)N[C@H]1CSSC[C@@H](C(=O)O)NC(=O)CNC(=O)[C@H]([C@@H](C)O)NC(=O)[C@H](CCSC)NC(=O)[C@H](CCCCN)NC1=O [GLLDTIKNTAKNLAVGLLDKIKCKMTGC],3 µM,,,,MIC [7]: ≥ 150 µM
CC[C@H](C)[C@H](N)C(=O)N[C@@H](CC(C)C)C(=O)NCC(=O)N[C@@H](C)C(=O)N[C@H](C(=O)N[C@H](C(=O)N1CCC[C@H]1C(=O)N[C@@H](CC(C)C)C(=O)N[C@H](C(=O)N[C@@H](CO)C(=O)NCC(=O)N[C@@H](CC(C)C)C(=O)N[C@@H](CC(C)C)C(=O)N[C@@H](CO)C(=O)N[C@@H](Cc1cnc[nH]1)C(=O)N[C@@H](CC(C)C)C(N)=O)C(C)C)[C@@H](C)CC)[C@@H](C)CC [ILGAIIPLVSGLLSHL],,> 400 µM,19.3 µM,,MIC [8]: 310 µM
CC(C)C[C@H](NC(=O)[C@H](C)NC(=O)[C@H](CCCCN)NC(=O)[C@H](Cc1c[nH]c2ccccc12)NC(=O)[C@H](CC(C)C)NC(=O)[C@H](CCCCN)NC(=O)[C@H](C)NC(=O)[C@H](CC(C)C)NC(=O)[C@H](C)NC(=O)[C@H](CCCCN)NC(=O)[C@H](C)NC(=O)[C@H](CC(C)C)NC(=O)[C@H](C)NC(=O)[C@@H](N)CCCCN)C(=O)N[C@@H](C)C(=O)N[C@@H](CCCCN)C(=O)N[C@@H](C)C(=O)N[C@@H](C)C(N)=O [KALAKALAKLWKALAKAA],,6 µM,1.5 µM,24 µM,
CC[C@H](C)[C@H](NC(=O)[C@H](Cc1cnc[nH]1)NC(=O)[C@H](CCCN=C(N)N)NC(=O)[C@@H]1CCCN1C(=O)[C@@H]1CCCN1C(=O)[C@H](CCCN=C(N)N)NC(=O)[C@@H]1CCCN1C(=O)[C@H](CCCN=C(N)N)NC(=O)[C@@H]1CCCN1C(=O)[C@H](CC(C)C)NC(=O)[C@H](Cc1ccc(O)cc1)NC(=O)[C@@H]1CCCN1C(=O)[C@@H]1CCCN1C(=O)[C@H](CCCCN)NC(=O)[C@H](CC(=O)O)NC(=O)[C@@H](N)C(C)C)C(=O)N[C@@H](Cc1ccc(O)cc1)C(=O)N[C@@H](CC(N)=O)C(=O)N[C@@H](CCCN=C(N)N)C(N)=O [VDKPPYLPRPRPPRHIYNR],,,,,MIC [10]: > 54 µM; MIC [11]: 0.548 µM; MIC [9]: 27 µM

# Further lines, with some results ahead:
MIC [2],MIC [3],MIC [5],MIC [6],SMILES,also measured
,3.68 µM,1.84 µM,14.7 µM,CC(C)C[C@H](NC(=O)[C@H](C)NC(=O)[C@H](CC(C)C)NC(=O)[C@H](CCCCN)NC(=O)[C@H](CC(C)C)NC(=O)[C@H](C)NC(=O)[C@H](CC(C)C)NC(=O)[C@@H](N)CCCCN)C(=O)N[C@@H](CCCCN)C(=O)N[C@@H](C)C(=O)N[C@@H](Cc1c[nH]c2ccccc12)C(=O)N[C@@H](CCCCN)C(=O)N[C@@H](C)C(=O)N[C@@H](C)C(=O)N[C@@H](CC(C)C)C(=O)N[C@@H](CCCCN)C(=O)N[C@@H](CC(C)C)C(=O)N[C@@H](C)C(N)=O [KLALKLALKAWKAALKLA],
,,,> 20 µM,CC[C@H](C)[C@H](NC(=O)[C@H](Cc1ccccc1)NC(=O)[C@H](CO)NC(=O)[C@H](CCCCN)NC(=O)[C@H](Cc1c[nH]c2ccccc12)NC(=O)[C@@H](N)CCCCN)C(=O)N[C@@H](CCCCN)C(=O)N[C@@H](CCCCN)C(=O)N[C@@H](CCCN=C(N)N)C(=O)N[C@H](C(=O)N[C@@H](CO)C(=O)N[C@@H](CCCCN)C(=O)N[C@@H](Cc1ccccc1)C(=O)N[C@@H](CC(C)C)C(=O)N[C@@H](Cc1cnc[nH]1)C(=O)N[C@@H](CO)C(=O)N[C@@H](C)C(=O)N[C@@H](CCCCN)C(=O)N[C@@H](CCCCN)C(=O)N[C@@H](Cc1ccccc1)C(N)=O)[C@@H](C)O [KWKSFIKKRTSKFLHSAKKF],
5.53 µM,,,,CC[C@H](C)[C@H](NC(=O)[C@H](CCCN=C(N)N)NC(=O)[C@@H](NC(=O)[C@H](CCCN=C(N)N)NC(=O)[C@H](Cc1c[nH]c2ccccc12)NC(=O)[C@H](Cc1ccccc1)NC(=O)[C@H](Cc1ccccc1)NC(=O)[C@@H]1CCCN1)[C@@H](C)CC)C(=O)N[C@@H](CCCN=C(N)N)C(=O)N[C@@H](CCCN=C(N)N)C(N)=O [PFFWRIRIRR],MIC [9]: 5.53 µM
,10 µM,20 µM,,CC[C@H](C)[C@H](NC(=O)[C@H](CCCCN)NC(=O)[C@H](CS)NC(=O)[C@H](C)NC(=O)[C@@H](NC(=O)[C@H](Cc1ccccc1)NC(=O)CNC(=O)[C@H](CC(C)C)NC(=O)CNC(=O)[C@@H](NC(=O)[C@H](CCCCN)NC(=O)CNC(=O)[C@H](CC(C)C)NC(=O)[C@H](CC(N)=O)NC(=O)[C@H](CCCCN)NC(=O)[C@H](CC(C)C)NC(=O)[C@@H](NC(=O)[C@H](CO)NC(=O)[C@H](CC(C)C)NC(=O)[C@H](CCSC)NC(=O)[C@@H](N)CO)C(C)C)C(C)C)C(C)C)C(=O)N[C@@H](CCCCN)C(=O)N[C@@H](CCCCN)C(=O)N[C@@H](CCC(N)=O)C(=O)N[C@@H](CS)C(=O)O [SMLSVLKNLGKVGLGFVACKIKKQC],MIC [8]: 20 µM
